In ChEMBL document CHEMBL5233269, “Anticancer potential of spirocompounds in medicinal chemistry: A pentennial expedition” (Eur J Med Chem, 2021):
Blank lines part the entries; values can stand above or below the molecule they belong to.

Columns and labels:
[1] = tested on: HepG2; experiment: Antiproliferative activity against human HepG2 cells by MTT assay; format: functional, cell-based
[2] = tested on: L02; experiment: Antiproliferative activity against human L02 cells by MTT assay; format: functional, cell-based
[3] = tested on: MCF7; experiment: Inhibition of cell proliferation in human MCF7 cells; format: functional, cell-based
[4] = Inhibition of cell proliferation in human MCF-10A cells at 50 uM by MTT colorimetric cell viability assay relative to control; format: toxicity, cell-based
[5] = tested on: MCF7; experiment: Anticancer activity against human MCF7 cells at 10 uM by MTT assay relative to control; format: functional
[6] = tested on: HeLa; experiment: Cytotoxicity against human HeLa cells incubated for 24 hrs by MTT assay; format: functional, cell-based
[7] = tested on: HeLa; experiment: Cytotoxicity against human HeLa cells incubated for 48 hrs by MTT assay; format: functional, cell-based
[8] = tested on: LNCaP; experiment: Anticancer activity against human LNCaP cells measured after 48 hrs by MTT assay; format: functional, cell-based
[9] = tested on: DU-145; experiment: Anticancer activity against human DU-145 cells measured after 48 hrs by MTT assay; format: functional, cell-based; settings: DU-145, 48 h
[10] = tested on: Ishikawa; experiment: Anticancer activity against human Ishikawa cells measured after 48 hrs by MTT assay; format: functional, cell-based
[11] = tested on: MCF7; experiment: Anticancer activity against human MCF7 cells measured after 48 hrs by MTT assay; format: functional, cell-based; settings: MCF7, 48 h
[12] = tested on: MDA-MB-231; experiment: Anticancer activity against human MDA-MB-231 cells measured after 48 hrs by MTT assay; format: functional, cell-based; settings: MDA-MB-231, 48 h
[13] = Antiproliferative activity against human […] cells measured after 48 hrs by MTT assay; format: functional, cell-based
[14] = tested on: MCF7; experiment: Antiproliferative activity against human MCF7 cells measured after 48 hrs by MTT assay; format: functional, cell-based; settings: MCF7, 48 h
[15] = tested on: HeLa; experiment: Antiproliferative activity against human HeLa cells measured after 48 hrs by MTT assay; format: functional, cell-based
[16] = tested on: HL-60; experiment: Antiproliferative activity against human HL-60 cells measured after 48 hrs by MTT assay; format: functional, cell-based; settings: HL-60, 48 h
[17] = tested on: SW480; experiment: Antiproliferative activity against human SW480 cells measured after 48 hrs by MTT assay; format: functional, cell-based; settings: SW480, 48 h
[18] = tested on: HepG2; experiment: Antiproliferative activity against human HepG2 cells measured after 48 hrs by MTT assay; format: functional, cell-based; settings: HepG2, 48 h
[19] = tested on: HT-29; experiment: Antiproliferative activity against human HT-29 cells measured after 48 hrs by MTT assay; format: functional, cell-based; settings: HT-29, 48 h
[20] = tested on: A549; experiment: Antiproliferative activity against human A549 cells measured after 48 hrs by MTT assay; format: functional, cell-based; settings: A549, 48 h
[21] = tested on: HepG2; experiment: Anticancer activity against human HepG2 cells at 200 microg/ml measured after 48 hrs relative to control; format: functional
[22] = tested on: 4T1; experiment: Anticancer activity against mouse 4T1 cells at 200 microg/ml measured after 48 hrs relative to control; format: functional
[23] = tested on: A549; experiment: Anticancer activity against human A549 cells assessed as inhibition of cell growth by MTT assay; format: functional, cell-based
[24] = tested on: MCF7; experiment: Anticancer activity against human MCF7 cells assessed as inhibition of cell growth by MTT assay; format: functional, cell-based
[25] = tested on: HeLa; experiment: Anticancer activity against human HeLa cells assessed as inhibition of cell growth by MTT assay; format: functional, cell-based
[26] = tested on: SMMC-7721; experiment: Cytotoxicity against human SMMC-7721 cells assessed as inhibition of tumor cell proliferation incubated for 72 hrs by MTT assay; format: functional, cell-based; settings: SMMC-7721, 72 h
[27] = tested on: A549; experiment: Cytotoxicity against human A549 cells assessed as inhibition of tumor cell proliferation incubated for 72 hrs by MTT assay; format: functional, cell-based; settings: A549, 72 h
[28] = tested on: MGC-803; experiment: Cytotoxicity against human MGC-803 cells assessed as inhibition of tumor cell proliferation incubated for 72 hrs by MTT assay; format: functional, cell-based; settings: MGC-803, 72 h
[29] = tested on: MCF7; experiment: Antiproliferative activity against human MCF7 cells assessed as inhibition of cell viability; format: functional, cell-based
[30] = tested on: K562; experiment: Antiproliferative activity against human K562 cells assessed as inhibition of cell viability; format: functional, cell-based
[31] = tested on: A-431; experiment: Anticancer activity against human A-431 cells; format: functional, cell-based
[32] = tested on: MCF7; experiment: Anticancer activity against human MCF7 cells assessed as reduction of cell growth; format: functional, cell-based
[33] = tested on: PC-3; experiment: Anticancer activity against human PC-3 cells assessed as reduction of cell growth; format: functional, cell-based
[34] = Anticancer activity against human MCF-10A cells assessed as reduction of cell growth; format: toxicity, cell-based

IC50 [1]: 7.9 µM
Structure (SMILES): O=C1C(=O)C2C(N=C3N=NNN3C23C(=O)Nc2c(C(F)(F)F)cccc23)c2ccccc21 (stereo not drawn)
IC50 [2]: 49.9 µM

EC50 [3]: 6 µM
Structure (SMILES): O=C1Nc2ccccc2C12CCNC2c1cccc(F)c1 (stereo not drawn)
inhibition at 50 µM [4]: 4.48%

Structure (SMILES): CC(=O)N1C(=O)C2(C(C#N)=C(N)Oc3n[nH]c(C)c32)c2ccccc21 (stereo not drawn)
inhibition at 10 µM [5]: 26.5%

Structure (SMILES): Cc1cn(CN2C(=O)C3(c4ccccc42)C(C(=O)c2ccc(F)cc2)C3C(=O)c2ccc(Cl)cc2)nn1 (stereo not drawn)
IC50 [6]: 11.2 µM
IC50 [7]: 6.3 µM

IC50 [8]: 1.1 µM
IC50 [9]: 2.13 µM
IC50 [11]: 1.02 µM
IC50 [12]: 3.01 µM
Structure (SMILES): O=C1NC2(C3=C(C(=O)C4C=CC=CC4C3=O)c3ccccc32)c2cc(Cl)c(Cl)cc21 (stereo not drawn)
IC50 [10]: 0.75 µM

IC50 [14]: 4.31 µM
IC50 [15]: 3.56 µM
IC50 [16]: 4.46 µM
IC50 [17]: 5 µM
IC50 [18]: 2.43 µM
IC50 [19]: 5.04 µM
IC50 [20]: 5.39 µM
Structure (SMILES): CC(=O)O[C@H]1CC[C@]2(C)C3CC[C@@]4(C)C(CC[C@H]4[C@H](C)CCCC(C)C)C3C[C@@]3(N=C4C=CC=CN4/C3=N\c3ccccc3)C2C1 (stereo partly drawn)
IC50 [13]: 5.35 µM

Structure (SMILES): Cc1ccc(C(=O)[C@H]2[C@]3(C(=O)Nc4ccc(F)cc43)[C@@H]3c4ccccc4CCN3[C@@]23C(=O)Nc2ccc(Cl)cc23)cc1
inhibition at 200 µg/mL [21]: 73.5%
inhibition at 200 µg/mL [22]: 33.3%

IC50 [23]: 17.8 µM
IC50 [24]: 6.47 µM
IC50 [25]: 9.14 µM
Structure (SMILES): O=C1C2=C(c3ccccc31)N(c1ccc(N3CCOCC3)c(F)c1)C1=C(C(=O)c3ccccc31)C21C(=O)Nc2ccccc21

Structure (SMILES): C[C@]12CC[C@H](O)CC1=CCC1C2CC[C@@]2(C)C1CC[C@@H]2C1=CC2(C(=O)N(Cc3ccc(Cl)c(Cl)c3)c3ccccc32)C(C#N)=C(N)N1 (stereo partly drawn)
IC50 [26]: > 128 µM
IC50 [27]: > 128 µM
IC50 [28]: > 128 µM

IC50 [14]: 4.8 µM
IC50 [15]: 3.84 µM
IC50 [16]: 5.07 µM
IC50 [17]: 5.21 µM
IC50 [18]: 4.24 µM
IC50 [19]: 3.1 µM
IC50 [20]: 2.62 µM
Structure (SMILES): CC(C)CCC[C@@H](C)[C@@H]1CCC2C3C[C@@]4(N=C5C=CC=CN5/C4=N\c4ccccc4)C4CCCC[C@]4(C)C3CC[C@@]21C (stereo partly drawn)
IC50 [13]: 5.38 µM

IC50 [1]: 3.03 µM
Structure (SMILES): O=C1C(=O)C2C(N=C3N=NNN3C23C(=O)Nc2c(Cl)cccc23)c2ccccc21 (stereo not drawn)
IC50 [2]: 49.5 µM

Structure (SMILES): O=C(c1ccc(F)cc1)C1C(C(=O)c2ccc(F)cc2)C12C(=O)Nc1ccccc12 (stereo not drawn)
IC50 [6]: 11.2 µM
IC50 [7]: 6.25 µM

EC50 [3]: 3.53 µM
Structure (SMILES): O=C1Nc2ccccc2C12CCNC2c1ccccc1 (stereo not drawn)
inhibition at 50 µM [4]: 0.08%

IC50 [29]: 18.6 µM
IC50 [30]: 13.4 µM
Structure (SMILES): COc1ccc(/C=C2\CCCC3(C2=O)[C@@H]2CCCN2[C@@]2(C(=O)Nc4ccccc42)[C@H]3c2ccc(OC)cc2)cc1 (stereo partly drawn)

IC50 [29]: 19.4 µM
IC50 [30]: 16.6 µM
Structure (SMILES): O=C1/C(=C/c2c(Cl)cccc2Cl)CCCC12[C@@H]1CCCN1[C@@]1(C(=O)Nc3ccccc31)[C@H]2c1c(Cl)cccc1Cl (stereo partly drawn)

EC50 [3]: 4.01 µM
Structure (SMILES): COc1cc(OC)c(C2NCCC23C(=O)Nc2ccccc23)cc1OC (stereo not drawn)
inhibition at 50 µM [4]: 0.8%

Structure (SMILES): COC(=O)c1[nH]nc2c1C1(C(=O)N(C(C)=O)c3ccccc31)C(C#N)=C(N)O2 (stereo not drawn)
inhibition at 10 µM [5]: 23.2%

IC50 [31]: 52.1 µM
IC50 [32]: 7.82 µM
IC50 [33]: 84.9 µM
Structure (SMILES): CC1(C)CC(=O)C2C(C1)N(c1ccccc1F)C(=O)C21c2ccccc2NC2C(=O)CC(C)(C)CC21 (stereo not drawn)
IC50 [34]: 36.3 µM
